US5587389A, “Substituted heteroarylaklylthiopyridines for controlling helicobacter bacteria” (BYK Gulden Lomberg Chemische Fabrik GmbH, priority 1993, dated 1996)

Each compound was assayed on Helicobacter pylori (assay: activity against Helicobacter pylori (MIC), modified method of Iwahi et al., Columbia agar, growth period of 4 days). Settings: Columbia agar (Oxoid).
Format: cell-based
Procedure: The compounds of the formula I were tested for their activity against Helicobacter pylori following a modification of the method described by Tomoyuki Iwahi et al. (Antimicrobial Agents and Chemotherapy, 1991, 490-496) using Columbia agar (Oxoid) over a growth period of 4 days. The MIC values listed in Table 2 below were found here for the tested compounds (the compound numbers shown agree with the compound numbers in the description).

SMILES | MIC Value
Cc1c(SCCc2ccccn2)ccnc1CSc1nc2ccccc2[nH]1 [Compound 17] | ≤ 1.0 µg/mL

Same assay, conditions: Helicobacter pylori, 96 h, Columbia agar (Oxoid)

SMILES | MIC
Cc1c(SCc2ccco2)ccnc1CSc1nc2ccccc2[nH]1.Cl.Cl [Compound 12, 2-{[[4-(2-Furylmethylthio)-3-methyl-2-pyridinyl]methyl]thio}-1H-benzimidazole dihydrochloride] | ≤ 1 µg/mL
COc1ccnc(CSc2ccnc(CSc3nc4ccccc4[nH]3)c2C)c1OC [Compound 16, 2-{[[4-3,4-Dimethoxy-2-pyridinylmethylthiol-3-methyl-2-pyridinyl]methyl]thio}-1H-benzimidazole] | ≤ 1 µg/mL
Cc1c(SCCCn2ccnc2)ccnc1CSc1nc2ccccc2[nH]1 [Compound 18, 2-{[[-4-[3-(Imidazol-1-yl)propylthio]-3-methyl-2-pyridinyl]methyl]thio}-1H-benzimidazole] | ≤ 1 µg/mL
Cc1c(SCCCn2ccnc2C)ccnc1CSc1nc2ccccc2[nH]1 [Compound 19, 2-{[[4-[3-(2-Methylimidazol-1-yl)propylthio]-3-methyl-2-pyridinyl]methyl]thio}-1H-benzimidazole] | ≤ 1 µg/mL
Cc1c(SCc2ccco2)ccnc1C[S+]([O-])c1nc2ccccc2[nH]1 (centres unmarked) [Compound 20, 2-{[[4-(2-Furylmethylthio)-3-methyl-2-pyridinyl]methyl]sulfinyl}-1H-benzimidazole] | ≤ 1 µg/mL

Second part, the compound after the results:

MIC | SMILES
≤ 1 µg/mL | Cc1c(SCc2ccco2)ccnc1CSc1nc2ccccc2[nH]1 [Compound 1, 2-{[[4-(2-Furylmethylthio)-3-methyl,2-pyridinyl]methyl]thio}-1H-benzimidazole]
≤ 1 µg/mL | COc1c(SCc2ccco2)ccnc1CSc1nc2ccccc2[nH]1 [Compound 2, 2-{[[4-(2-Furylmethylthio)-3-methoxy-2-pyridinyl]methyl]thio}-1H-benzimidazole]
≤ 1 µg/mL | Cc1c(SCc2cccs2)ccnc1CSc1nc2ccccc2[nH]1 [Compound 5, 2-{[[3-Methyl-4-(2-thienylmethylthio)-2-pyridinyl]methyl]thio}-1H-benzimidazole]
≤ 1 µg/mL | Cc1c(SCc2ccsc2)ccnc1CSc1nc2ccccc2[nH]1 [Compound 6, 2-{[[3-Methyl-4-(3-thienylmethylthio)-2-pyridinyl]methyl]thio}-1H-benzimidazole]
≤ 1 µg/mL | c1csc(CSc2ccnc(CSc3nc4ccccc4[nH]3)c2)c1 [Compound 8, 2-{[[4-(2-Thienylmethylthio)-2,pyridinyl]methyl]thio}-1H-benzimidazole]
